The values below come from US9629899B2, “Targeted cargo protein combination therapy” (priority 2008, dated 2017).

As usually defined, the IC50 is the point on the concentration scale where inhibition reaches its midpoint.

The conditions of series [1]: mice receiving optimal doses; data not shown.
Series [2] deals with MIA-PaCa-2-GFP tumors. Briefly: Early pancreatic tumor model, orthotopic MIA-PaCa-2-GFP, whole-body imaging and survival. The series is classed as in vivo, nude mice.
Description: (§1) Surgical orthotopic implantation of MIA-PaCa-2-GFP tumors. MIA-PaCa-2-GFP cells were injected s.c. into the right dorsal flank of nude mice. Pancreatic tumors, grown s.c. in nude mice, were cut with scissors and minced into f3% 3% 3-mm pieces. For orthotopic surgery, the pancreas was carefully exposed, and tumor chunks were transplanted on the middle of the pancreas with a 6-0 Dexon surgical suture (Davis-Geck, Inc.). The pancreas was then returned to the peritoneal cavity, the abdominal wall, and the skin was closed with 6-0 Dexon sutures.
Experimental design and treatment. For early pancreatic cancer model, primary tumor lesions were detected by external whole-body imaging on day 4 after transplantation. Once the tumors were visualized, mice were randomized into four groups of 10 each. Treatment was initiated on day 5. For advanced pancreatic cancer model, primary and metastasis tumor lesions were detected by external whole-body imaging on day 14 post-transplantation of tumor chunk and randomized into four groups of 10 mice each. Treatment was initiated on day 15.
(§2) Statistical analysis. The mean tumor volume in therapeutic and control groups was analyzed by ANOVA. Survival curves were generated by Kaplan-Meier method and compared by using the log-rank test.
Treatment was initiated on day 5 after transplantation. […]
Series [3] deals with SW1990 cells. Briefly: cells. The format is cell-based, human.
Series [4] deals with clinical pancreatic cancer sample xenograft. Briefly: Advanced orthotopic pancreatic cancer model from a clinical sample, survival. The format is in vivo. The conditions noted are these: clinical sample in SCID mice, treatment from day 31; gemcitabine 150 mg/kg i.p. twice a week; PRX321 100 ug/kg i.p. twice a day days 31-35; non-treatment 62 days.
Description: Primary and orthotopic pancreatic cancer model using a clinical sample. […] Viable tumor tissue from specimen was cut into small pieces (3% 3% 3 mm) and implanted in the pancreas of 5- to 6-week-old male SCID mice. Primary xenografts were propagated continuously in SCID mice for in vivo testing. Clinical sample-bearing mice were also treated after day 31 by the same protocol as described above.
as §2
These mice, when advanced disease developed, were divided into four groups on day 31 and treated as described in Materials and Methods. […] Group 2 animals received gemcitabine (150 mg/kg) by i.p. administration twice a week as long as the experiment lasted.
In series [5] the test system is MIA-PaCa-2-GFP tumors. Briefly: Advanced metastatic pancreatic tumor model, orthotopic MIA-PaCa-2-GFP, whole-body imaging and survival. The format is in vivo, nude mice.
Description: as §1
For advanced pancreatic cancer model, primary and metastasis tumor lesions were detected by external whole-body imaging on day 14 post-transplantation of tumor chunk and randomized into four groups of 10 mice each. Treatment was initiated on day 15.
The mean tumor volume in therapeutic and control groups was analyzed by ANOVA. Survival curves were generated by Kaplan-Meier method and compared by using the log-rank test.
Group 2 animals received gemcitabine (150 mg/kg) by i.p. administration twice a week as long as the experiment lasted.
In series [6] the test system is HS766T cells. Briefly: Protein synthesis inhibition assay (cytotoxicity), HS766T. The format is cell-based. The conditions noted are these: Homo sapiens, read-out: IC50 (50% protein synthesis inhibition), single agent.
Description: Protein synthesis inhibition assay and assessment of synergism or antagonism. […] On the basis of the isobologram analysis for mutually exclusive effects, the CI value was calculated as follows:
Series [7] has as its system MIA-PaCa-2 cells. Briefly: cells. The format is cell-based, human.
The subject of series [8] is Capan-1 cells. Briefly: cells. The format is cell-based, human.
[9] abbreviates: Homo sapiens, read-out: IC50 (50% protein synthesis inhibition), single agent.

As to `Nc1ccn([C@@H]2O[C@H](CO)[C@@H](O)C2(F)F)c(=O)n1` [Gemcitabine], in series [1], the “Visible signs of toxicity (weight loss, inactivity)” value is “no visible signs of toxicity”. Besides, the Median survival time in series [2] (non-treatment group 27 days) was found to be 54 days; in series [4] it was 86 days; in series [5] (non-treatment group 28 days) it was 34 days. Moreover, the “Tumor growth compared with non-treatment group (whole-body imaging)” value in series [2] (treatment from day 5, gemcitabine 150 mg/kg i.p. twice a week, PRX321 100 ug/kg i.p. twice a day for 5 days) is on record as “reduction in the rate of tumor growth”; in series [5] (treatment from day 15, gemcitabine 150 mg/kg i.p. twice a week, PRX321 100 ug/kg i.p. twice a day for 5 days), “reduction in the rate of tumor growth”. The IC50 is 1000 nM in series [3] (setting [9]), 14 nM in series [6], 22 nM in series [7] (setting [9]) and 3.2 nM in series [8] (setting [9]). In addition, the “IC75 (75% protein synthesis inhibition)” value in series [3] (single agent) was 3,000 nmol/L; in series [7] (single agent) it was 280 nM; in series [8] (single agent), 9 nM. In addition, the “Reduction in tumor size on day 28 compared with the no treatment group” value in series [5] (day 28) stood at 39.8%.
